Measurements taken from US11564923B2, “Compounds and pharmaceutical compositions thereof for the treatment of inflammatory disorders” (Galapagos NV, priority 2017, dated 2023).

Experiments:
[1] = test system: IFNα activation of STAT1 in PBMC; assay: IFNα activation of STAT1 in PBMC; type: cell-based; conditions: Homo sapiens; IFNα activation of STAT1 in PBMC; average IC50; read-out: IFNα signaling inhibitory potency IC50
In short: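 Human PBMC, with red cells lysed by NH4Cl, were pre-treated with compound for 30 min at 37 °C and 5% CO2. They were then stimulated for 30 min with recombinant human IFNα at 5 ng/mL final.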

[2] = biological target: T1, Recombinant human TYK2 catalytic domain (amino acids 871-1187) (Homo sapiens, UniProt P29597); assay: TYK2 radioactive assay polyGT substrate; type: biochemical; also: 0.1 µM ATP
T1 construct: catalytic domain (amino acids 871-1187)
T1 sequence (P29597 871-1187): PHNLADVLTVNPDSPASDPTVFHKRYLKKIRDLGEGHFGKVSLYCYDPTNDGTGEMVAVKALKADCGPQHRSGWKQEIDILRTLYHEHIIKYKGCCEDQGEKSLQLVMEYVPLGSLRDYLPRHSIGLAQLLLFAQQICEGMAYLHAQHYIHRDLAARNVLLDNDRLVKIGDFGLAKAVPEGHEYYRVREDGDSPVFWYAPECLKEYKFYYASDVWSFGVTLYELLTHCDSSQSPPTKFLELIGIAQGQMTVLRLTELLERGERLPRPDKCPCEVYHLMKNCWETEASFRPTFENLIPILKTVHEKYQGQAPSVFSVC
In short: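 Reaction at 30° C. for 120 min, ended with 150 mM phosphoric acid, washed, counted; percent inhibition scaled between vehicle and 10 μM staurosporine cpm.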

[3] = biological target: T2, Recombinant human JAK1 (catalytic domain, amino acids 866-1154) (Homo sapiens, UniProt P23458); assay: JAK1 inhibition assay; type: biochemical; conditions: read-out: JAK1 potency IC50
T2 construct: catalytic domain, amino acids 866-1154
Procedure: (§1) After 60 min at room temperature, reactions are stopped by adding 20 μL/well of detection mixture (1× detection buffer (Perkin Elmer, catalog number CR97-100), 0.5 nM Europium-anti-phosphotyrosine (PT66) (Perkin Elmer, catalog number AD0068/AD0069), 10 mM EDTA). […] Kinase activity is calculated by subtracting the ratio obtained in the presence of a positive control inhibitor (1 μM staurosporine) from the ratio obtained in the presence of vehicle. The ability of a test compound to inhibit this activity (or percentage inhibition) is determined as:
(§2) [formula] wherein Fluorescent ratio test compound=ratio RFU665/RFU615*1000 determined for sample with test compound present Fluorescent ratio control=ratio RFU665/RFU615*1000 determined for sample with positive control inhibitor Fluorescent ratio vehicle=ratio RFU665/RFU615*1000 determined in the presence of vehicle
(§3) Dose dilution series were prepared for the compounds enabling the testing of dose-response effects in the JAK1 assay and the calculation of the IC50 for the compound. Each compound is routinely tested at concentration of 20 μM followed by a 1/5 serial dilution, 10 points in a final concentration of 1% DMSO. […] The data are expressed as the average IC50 from the assays.

[4] = biological target: Recombinant human JAK3 catalytic domain (amino acids 781-1124) (Homo sapiens, UniProt P52333); assay: JAK3 inhibition assay; type: biochemical
Procedure: After 45 min at 30° C., reactions are stopped by adding 25 μL/well of 150 mM phosphoric acid. […] Plates are washed 6 times with 300 μL per well of a 75 mM phosphoric acid solution and the bottom of the plates is sealed. […] Kinase activity is calculated by subtracting counts per min (cpm) obtained in the presence of a positive control inhibitor (10 μM staurosporine) from cpm obtained in the presence of vehicle. The ability of a test compound to inhibit this activity (or percentage inhibition) is determined as: […]
cpm test compound=cpm determined for sample with test compound present cpm control=cpm determined for sample with positive control inhibitor cpm vehicle=cpm determined in the presence of vehicle
Dose dilution series were prepared for the compounds enabling the testing of dose-response effects in the JAK3 assay and the calculation of the IC50 for each compound. Each compound is routinely tested at concentration of 20 μM followed by a 1/5 serial dilution, 10 points in a final concentration of 1% DMSO.

[5] = biological target: T3, Recombinant human JAK2 (catalytic domain, amino acids 808-1132) (Homo sapiens, UniProt O60674); assay: JAK2 inhibition assay; type: biochemical; conditions: read-out: JAK2 potency IC50; also: 0.7 µM ATP
T3 construct: catalytic domain, amino acids 808-1132
Procedure: as §1, with “CR97-100) with” for “CR97-100),”, “AD0068/AD0069) and” for “AD0068/AD0069),”
as §2
as §3, with “are” for “were”, “compound” for “the compounds”, “JAK2” for “JAK1”

T3 sequence (O60674 808-1132): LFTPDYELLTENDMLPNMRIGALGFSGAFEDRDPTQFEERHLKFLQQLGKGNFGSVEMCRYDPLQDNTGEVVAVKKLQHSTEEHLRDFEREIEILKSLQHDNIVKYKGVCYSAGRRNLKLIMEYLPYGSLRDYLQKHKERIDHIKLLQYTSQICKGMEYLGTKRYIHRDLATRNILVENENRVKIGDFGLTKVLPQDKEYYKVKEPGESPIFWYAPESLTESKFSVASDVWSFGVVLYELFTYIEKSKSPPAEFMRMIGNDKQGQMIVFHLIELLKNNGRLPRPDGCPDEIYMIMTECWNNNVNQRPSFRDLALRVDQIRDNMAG
T2 sequence (P23458 866-1154): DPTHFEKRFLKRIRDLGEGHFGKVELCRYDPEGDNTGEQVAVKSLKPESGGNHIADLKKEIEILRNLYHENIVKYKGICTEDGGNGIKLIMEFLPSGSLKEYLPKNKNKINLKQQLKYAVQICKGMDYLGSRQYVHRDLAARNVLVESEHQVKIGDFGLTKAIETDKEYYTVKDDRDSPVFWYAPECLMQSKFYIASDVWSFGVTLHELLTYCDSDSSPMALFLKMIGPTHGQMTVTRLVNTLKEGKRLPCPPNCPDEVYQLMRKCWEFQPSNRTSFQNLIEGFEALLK
Recombinant human JAK3 catalytic domain (amino acids 781-1124), sequence (P52333 781-1124): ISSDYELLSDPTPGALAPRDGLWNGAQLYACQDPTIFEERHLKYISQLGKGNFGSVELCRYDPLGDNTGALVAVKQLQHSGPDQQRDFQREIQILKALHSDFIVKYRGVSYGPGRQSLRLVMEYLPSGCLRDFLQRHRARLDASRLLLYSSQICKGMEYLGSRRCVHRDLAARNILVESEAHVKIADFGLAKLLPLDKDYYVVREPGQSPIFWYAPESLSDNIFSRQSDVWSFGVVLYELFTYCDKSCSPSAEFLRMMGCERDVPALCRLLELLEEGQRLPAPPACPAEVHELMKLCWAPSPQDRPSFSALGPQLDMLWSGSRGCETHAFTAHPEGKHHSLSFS

SMILES | IC50 [2] | IC50 [3] | IC50 [4] | IC50 [5] | IC50 [1]
Cc1cc(C#N)ncc1N(CCCO)c1cc(Nc2cc(N)ncn2)c2ncn(C)c2n1 [Compound 5, 5-[[7-(6-Amino-pyrimidin-4-ylamino)-3-methyl-3H-imidazo[4,5-b]pyridin-5-yl]-(3-hydroxy-propyl)-amino]-4-methyl-pyridine-2-carbonitrile] | 0.95 nM | 23.4 nM | 329 nM | 6.96 nM | –
CN(c1cc(Nc2cc(N)ncn2)c2ncn(C)c2n1)[C@@H]1CCC[C@@H](C#N)C1 (racemic) [Compound 13, (±)-(1R,3R)-3-{[7-(6-Amino-pyrimidin-4-ylamino)-3-methyl-3H-imidazo[4,5-b]pyridin-5-yl]-methyl-amino}-cyclohexanecarbonitrile] | 1.92 nM | 24.4 nM | 9.66 nM | 3.16 nM | –
CC(Nc1cc(Nc2cc(N)ncn2)c2ncn(C)c2n1)C1CCC1 (stereo not drawn) [Compound 94, N7-(6-aminopyrimidin-4-yl)-N5-(1-cyclobutylethyl)-3-methyl-imidazo[4,5-b]pyridine-5,7-diamine] | 30.7 nM | 217 nM | 87.1 nM | 39.7 nM | –
Cc1cc(C#N)ncc1Oc1cc(Nc2ccc(C(N(C)C)C(F)(F)F)cn2)c2ncn(C)c2n1 (stereo not drawn) [Compound 79] | 3.57 nM | 18.5 nM | 573 nM | 5.58 nM | –
COCCCNC(=O)c1ccc(Nc2cc(Oc3cnc(C#N)cc3C)nc3c2ncn3C)nc1 [Compound 100, 6-[[5-[(6-cyano-4-methyl-3-pyridyl)oxy]-3-methyl-imidazo[4,5-b]pyridin-7-yl]amino]-N-(3-methoxypropyl)pyridine-3-carboxamide] | 8.06 nM | 63.5 nM | 912 nM | 39.4 nM | –
C[C@H](C1CC1)N(C)c1cc(Nc2cc(N)ncn2)c2ncn(C)c2n1 [Compound 16, N7-(6-aminopyrimidin-4-yl)-N5-[(1R)-1-cyclopropylethyl]-N5,3-dimethyl-imidazo[4,5-b]pyridine-5,7-diamine] | 13.4 nM | 71 nM | 221 nM | 25 nM | –
CC(C)[C@@H](Nc1cc(Nc2ccc(C(=O)N(C)C)cn2)c2ncn(C)c2n1)C(F)(F)F [Compound 97, N,N-dimethyl-6-[[3-methyl-5-[[(1R)-2-methyl-1-(trifluoromethyl)propyl]amino]imidazo[4,5-b]pyridin-7-yl]amino]pyridine-3-carboxamide] | 3.08 nM | 21.8 nM | 36.4 nM | 6.29 nM | –
Cn1cnc2c(Nc3cc(N)ncn3)cc(NC(C3CC3)C3CC3)nc21 [Compound 95, N7-(6-aminopyrimidin-4-yl)-N5-(dicyclopropylmethyl)-3-methyl-imidazo[4,5-b]pyridine-5,7-diamine] | 26.3 nM | 250 nM | 177 nM | 38 nM | –

Now from value to compound, other results behind:

IC50 [2] | IC50 [3] | IC50 [4] | IC50 [5] | SMILES | IC50 [1]
5.53 nM | 310 nM | 1050 nM | 29.7 nM | Cc1cc(C#N)ncc1Oc1cc(Nc2ccc(C(=O)N3CC(C(C)(C)O)C3)nn2)c2ncn(C)c2n1 [Compound 111, 5-[7-[[6-[3-(1-hydroxy-1-methyl-ethyl)azetidine-1-carbonyl]pyridazin-3-yl]amino]-3-methyl-imidazo[4,5-b]pyridin-5-yl]oxy-4-methyl-pyridine-2-carbonitrile] | 123 nM
5.64 nM | 33.8 nM | 673 nM | 23.7 nM | Cc1cc(C#N)ncc1Oc1cc(Nc2ccc(C(=O)NC3CCC(O)C3)cn2)c2ncn(C)c2n1 (racemic) [Compound 139, 6-[[5-(6-cyano-4-methylpyridin-3-yl)oxy-3-methylimidazo[4,5-b]pyridin-7-yl]amino]-N-[rac-(1R,3R)-3-hydroxycyclopentyl]pyridine-3-carboxamide] | –
6.08 nM | 117 nM | 601 nM | 26.2 nM | COCCCNc1cc(Nc2cc(Oc3cnc(C#N)cc3C)nc3c2ncn3C)ncn1 [Compound 32, 5-{7-[6-(3-Methoxy-propylamino)-pyrimidin-4-ylamino]-3-methyl-3H-imidazo[4,5-b]pyridin-5-yloxy}-4-methyl-pyridine-2-carbonitrile] | –
5.49 nM | 101 nM | 1110 nM | 23.4 nM | Cc1cc(C#N)ncc1Oc1cc(Nc2cc(NCCCO)ncn2)c2ncn(C)c2n1 [Compound 34, 5-{7-[6-(3-Hydroxy-propylamino)-pyrimidin-4-ylamino]-3-methyl-3H-imidazo[4,5-b]pyridin-5-yloxy}-4-methyl-pyridine-2-carbonitrile] | –
9.69 nM | 60.2 nM | 737 nM | 31.6 nM | CCNC(=O)c1ccc(Nc2cc(Oc3cnc(C#N)cc3C)nc3c2ncn3C)nc1C [Compound 78, 6-[[5-[(6-cyano-4-methyl-3-pyridyl)oxy]-3-methyl-imidazo[4,5-b]pyridin-7-yl]amino]-N-ethyl-2-methyl-pyridine-3-carboxamide] | –
7.08 nM | 151 nM | 396 nM | 36.9 nM | Cc1cc(C#N)ncc1Oc1cc(Nc2ccc(N3CCC(N(C)C)CC3)cn2)c2ncn(C)c2n1 [Compound 181, 5-[7-[[5-[4-(dimethylamino)-1-piperidyl]-2-pyridyl]amino]-3-methyl-imidazo[4,5-b]pyridin-5-yl]oxy-4-methyl-pyridine-2-carbonitrile] | –
51.6 nM | 343 nM | 3220 nM | 214 nM | CCNC(=O)c1cnc(Nc2cc(Oc3cnc(C#N)cc3C)nc3c2ncn3C)cc1C [Compound 64, 6-[[5-[(6-cyano-4-methyl-3-pyridyl)oxy]-3-methyl-imidazo[4,5-b]pyridin-7-yl]amino]-N-ethyl-4-methyl-pyridine-3-carboxamide] | –
2.3 nM | 52.4 nM | 452 nM | 20.4 nM | Cc1cc(C#N)ncc1Oc1cc(Nc2cc(NCC3COCCO3)ncn2)c2ncn(C)c2n1 (stereo not drawn) [Compound 35, 5-(7-{6-[([1,4]Dioxan-2-ylmethyl)-amino]-pyrimidin-4-ylamino}-3-methyl-3H-imidazo[4,5-b]pyridin-5-yloxy)-4-methyl-pyridine-2-carbonitrile] | –
12.9 nM | 95.4 nM | 561 nM | 41.2 nM | COCCN(C)c1ccc(Nc2cc(Oc3cnc(C#N)cc3C)nc3c2ncn3C)nc1 [Compound 183, 5-[7-[[5-[2-methoxyethyl(methyl)amino]-2-pyridyl]amino]-3-methyl-imidazo[4,5-b]pyridin-5-yl]oxy-4-methyl-pyridine-2-carbonitrile] | –
